Experiment [1] has as its target T1, Integrin alpha-4/beta-1 (Homo sapiens, UniProt P05556+P13612). The experiment is described as follows: Concentration required to inhibit the VCAM-Very late antigen4 (VLA4) interaction in ELISA cell-based assay. Format: functional.
Experiment [2] addresses T1, Integrin alpha-4/beta-1. The experiment is described as follows: Concentration required to inhibit the VCAM-Very late antigen4 (VLA4) interaction in Ramos cell-based assay. It is filed as functional.

Drawing on ChEMBL document CHEMBL1135363, “N-acyl-L-phenylalanine derivatives as potent VLA-4 antagonists that mimic a cyclic peptide conformation” (Bioorg Med Chem Lett, 2002), this text covers IC50 for 18 compounds.

T1 sequence (P05556 whole entry): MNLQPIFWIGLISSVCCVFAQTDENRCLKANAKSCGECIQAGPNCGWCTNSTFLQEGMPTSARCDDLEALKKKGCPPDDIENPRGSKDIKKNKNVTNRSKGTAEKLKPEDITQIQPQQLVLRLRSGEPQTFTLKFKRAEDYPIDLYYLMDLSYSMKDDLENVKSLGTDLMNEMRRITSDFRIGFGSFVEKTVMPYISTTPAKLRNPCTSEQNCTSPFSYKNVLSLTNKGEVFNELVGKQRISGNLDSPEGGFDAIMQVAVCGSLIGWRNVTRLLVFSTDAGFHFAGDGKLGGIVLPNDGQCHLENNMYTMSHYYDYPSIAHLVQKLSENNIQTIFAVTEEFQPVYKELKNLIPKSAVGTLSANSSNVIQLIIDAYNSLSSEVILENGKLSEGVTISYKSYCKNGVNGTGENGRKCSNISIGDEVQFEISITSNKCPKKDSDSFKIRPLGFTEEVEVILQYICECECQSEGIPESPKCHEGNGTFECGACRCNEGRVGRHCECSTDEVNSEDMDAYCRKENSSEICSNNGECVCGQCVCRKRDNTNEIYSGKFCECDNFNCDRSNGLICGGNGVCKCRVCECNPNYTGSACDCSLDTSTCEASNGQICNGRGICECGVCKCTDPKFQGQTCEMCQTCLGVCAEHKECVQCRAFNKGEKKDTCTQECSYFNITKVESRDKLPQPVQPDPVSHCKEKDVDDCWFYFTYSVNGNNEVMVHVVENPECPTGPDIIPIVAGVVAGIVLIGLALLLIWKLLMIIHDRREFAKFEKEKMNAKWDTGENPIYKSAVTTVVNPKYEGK
T1 sequence (P13612 whole entry): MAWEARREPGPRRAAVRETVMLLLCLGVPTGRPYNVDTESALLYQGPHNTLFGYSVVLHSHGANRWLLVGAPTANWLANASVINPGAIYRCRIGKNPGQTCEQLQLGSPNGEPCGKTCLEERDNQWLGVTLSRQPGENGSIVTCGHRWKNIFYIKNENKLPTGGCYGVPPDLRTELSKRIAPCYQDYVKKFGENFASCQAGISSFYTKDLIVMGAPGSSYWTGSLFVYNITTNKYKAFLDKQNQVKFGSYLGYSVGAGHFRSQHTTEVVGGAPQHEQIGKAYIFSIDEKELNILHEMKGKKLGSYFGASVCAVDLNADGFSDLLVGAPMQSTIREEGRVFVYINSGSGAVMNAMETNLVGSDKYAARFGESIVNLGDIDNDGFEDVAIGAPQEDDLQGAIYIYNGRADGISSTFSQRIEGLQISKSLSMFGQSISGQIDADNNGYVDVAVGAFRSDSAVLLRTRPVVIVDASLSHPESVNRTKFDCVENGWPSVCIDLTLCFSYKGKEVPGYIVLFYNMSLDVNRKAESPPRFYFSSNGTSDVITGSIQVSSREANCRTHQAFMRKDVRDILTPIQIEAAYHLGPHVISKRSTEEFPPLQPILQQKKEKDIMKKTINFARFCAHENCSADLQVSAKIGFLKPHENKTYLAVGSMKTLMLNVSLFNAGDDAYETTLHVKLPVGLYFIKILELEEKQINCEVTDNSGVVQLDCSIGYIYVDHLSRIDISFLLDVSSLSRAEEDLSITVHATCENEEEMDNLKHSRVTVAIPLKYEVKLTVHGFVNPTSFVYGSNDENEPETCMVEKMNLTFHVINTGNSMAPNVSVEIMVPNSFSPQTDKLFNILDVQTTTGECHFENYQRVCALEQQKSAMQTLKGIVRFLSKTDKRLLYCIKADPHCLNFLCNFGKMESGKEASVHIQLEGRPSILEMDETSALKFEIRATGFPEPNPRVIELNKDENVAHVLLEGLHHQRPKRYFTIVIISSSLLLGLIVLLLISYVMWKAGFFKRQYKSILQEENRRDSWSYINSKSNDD

In experiment [1], `O=C(Nc1ccccc1)c1ccc(C[C@H](NC(=O)[C@@H]2CCC(=O)N2Cc2ccccc2)C(=O)O)cc1` registered an IC50 of 57 nM. As to `O=C(O)[C@H](Cc1ccc(C(=O)N2CCN(C(=O)c3ccccc3)CC2)cc1)NC(=O)[C@@H]1CCC(=O)N1Cc1ccccc1`, the IC50 in experiment [1] stood at 3 nM; in experiment [2], 960 nM.

As to `O=C(O)[C@H](Cc1ccc(C(=O)N2CCN(S(=O)(=O)c3ccccc3)CC2)cc1)NC(=O)[C@@H]1CCC(=O)N1Cc1ccccc1`, the 50% inhibitory concentration (IC50) was 11 nM in experiment [1] and 2200 nM in experiment [2]. For `CCN(CC)C(=O)C(Cc1ccc(O)cc1)NC(=O)c1ccc(C[C@H](NC(=O)[C@@H]2CCC(=O)N2Cc2ccccc2)C(=O)O)cc1` (stereo not given in full), in that order: 5 nM and 550 nM. For `COc1ccc(S(=O)(=O)N2CCN(C(=O)c3ccc(C[C@H](NC(=O)[C@@H]4CCC(=O)N4Cc4ccccc4)C(=O)O)cc3)CC2)cc1`, in that order: 12 nM and 9530 nM. For `COc1ccc(S(=O)(=O)N2CCN(C(=O)c3cccc(C[C@H](NC(=O)[C@@H]4CCC(=O)N4Cc4ccccc4)C(=O)O)c3)CC2)cc1`, in that order: 73 nM and 7800 nM. For `O=C(O)[C@H](Cc1ccc(C(=O)N2CCN(C(=O)c3cccc(O)c3)CC2)cc1)NC(=O)[C@@H]1CCC(=O)N1Cc1ccccc1`, the IC50 in experiment [1] stood at 3 nM; in experiment [2] it was 470 nM. As to `O=C(O)[C@H](Cc1cccc(C(=O)N2CCN(S(=O)(=O)c3ccccc3)CC2)c1)NC(=O)[C@@H]1CCC(=O)N1Cc1ccccc1`, the IC50 in experiment [1] came out at 60 nM. In experiment [1], `COc1ccc(CNC(=O)c2ccc(C[C@H](NC(=O)[C@@H]3CCC(=O)N3Cc3ccccc3)C(=O)O)cc2)cc1` registered a half-maximal inhibitory concentration (IC50) of 61 nM. Take `CC(=O)c1ccccc1NC(=O)c1ccc(C[C@H](NC(=O)[C@@H]2CCC(=O)N2Cc2ccccc2)C(=O)O)cc1`: the IC50 in experiment [1] is 4 nM; in experiment [2], 940 nM. For `COc1ccc(C(=O)N2CCN(C(=O)c3ccc(C[C@H](NC(=O)[C@@H]4CCC(=O)N4Cc4ccccc4)C(=O)O)cc3)CC2)cc1`, in that order: 4 nM and 320 nM. Turning to `O=C(Nc1ccc(C[C@H](NC(=O)[C@H]2CCC(=O)N2Cc2ccccc2)C(=O)O)cc1)c1c(Cl)cccc1Cl`, the IC50 in experiment [1] came to 0.37 nM.

Regarding `O=C(O)[C@H](Cc1ccc(C(=O)N2CCN(C(=O)c3ccc(O)cc3)CC2)cc1)NC(=O)[C@@H]1CCC(=O)N1Cc1ccccc1`, the concentration for half-maximal inhibition (IC50) in experiment [1] amounted to 3 nM; in experiment [2] it was 1700 nM. Taken in the same sequence, the figures for `CC(=O)N[C@@H](Cc1ccc(O)cc1)C(=O)Nc1ccc(C[C@H](NC(=O)[C@H]2CCC(=O)N2Cc2ccccc2)C(=O)O)cc1` were 6.5 nM and 2100 nM. For `CC(=O)N1CCN(C(=O)c2ccc(C[C@H](NC(=O)[C@@H]3CCC(=O)N3Cc3ccccc3)C(=O)O)cc2)CC1`, in that order: 7 nM and 5500 nM.

Turning to `C[C@H](NC(=O)c1ccc(C[C@H](NC(=O)[C@@H]2CCC(=O)N2Cc2ccccc2)C(=O)O)cc1)c1ccccc1`, the IC50 in experiment [1] came to 27 nM. As for `CCN(CC)C(=O)C(Cc1ccc(O)cc1)NC(=O)c1cccc(C[C@H](NC(=O)[C@@H]2CCC(=O)N2Cc2ccccc2)C(=O)O)c1` (stereo not given in full), the IC50 was determined as 240 nM in experiment [1] and 24400 nM in experiment [2]. As to `O=C(O)[C@H](Cc1cccc(C(=O)N2CCN(C(=O)c3ccccc3)CC2)c1)NC(=O)[C@@H]1CCC(=O)N1Cc1ccccc1`, in experiment [1], the half-inhibitory concentration (IC50) came out at 120 nM.
